The nature of assay [1]: NFkB reporter suppression in cystic fibrosis bronchial cells – cell-based, uHTS hits, panel, cytotoxicity readout, dose response (AID 624344). As to conditions: CF bronchial epithelial cells, PAF-induced NFkB reporter inhibition; with PAF, mean of runs.
The subject of assay [2] is Cytotoxicity. Described as above. To be noted: CF bronchial epithelial cells, mean of runs.

Results on 33 molecules are retold here after PubChem BioAssay AID624344 (Sanford-Burnham Center for Chemical Genomics, 2012).

pIC50: −log10 of the molar value. The source made the active and inactive calls. How the calls were made is not given here. A value given as a limit tells only on which side of the number the result lay.

On to `CCOC(=O)/C=c1/s/c(=C\c2c(OC)ccc3ccccc23)c(=O)n1CC(=O)NCC1CCCO1` (stereo unspecified), for which the IC50 in assay [1] and in assay [2] was > 79 µM (inactive) in each case.
For `Cc1ccnc(Nc2nc(-c3sc(C)nc3C)cs2)c1`, the pIC50 – broadly, −log10 of the IC50, conventionally taken in molar units – in assay [1] is 5.29; in assay [2], 4.78.
In the same order, the values of `Fc1ccc(-n2cc(-c3ccccc3)c3c(N4CCOCC4)ncnc32)cc1` are 5.49 and 5.09.
In the same order, the values of `CC(C)(C)S(=O)N1Cc2cc(C(=O)NCC(F)(F)F)nc(-c3cccc(-c4cccc(F)c4)c3)c2[C@@H]1CCO` (stereo partly specified) are 5.23 and 4.80.
In the same order, the values of `ON=C1c2ccccc2-c2cc(Br)ccc21` are 5.73 and 4.38.
Take `CCN(CC)S(=O)(=O)c1ccc(NC(=O)Nc2cccc(C(F)(F)F)c2)cc1`: the pIC50 in assay [1] was 5.22; in assay [2], 4.91.
For `CNC(=O)COC(=O)c1ccccc1C(=O)c1ccc(Cl)c([N+](=O)[O-])c1`, in that order: 6.00 and 5.43.
`CCCCCCCCCCCCCCC(O)C[N+](C)(CCO)CCO` (stereo unspecified): the negative-log IC50 (pIC50) in assay [1] is 5.34; in assay [2], 5.26.
For `O=C1C(=Cc2ccccc2[N+](=O)[O-])Cc2ccccc21`, in that order: 5.20 and 5.06.
In the case of `CCOC(=O)C1=C(C)Nc2ccccc2N=C1NC(=O)c1oc2ccccc2c1COC`, the pIC50 was 5.37 in assay [1] and 4.52 in assay [2].
`COc1ccc(OC)c(C2CC(=O)c3c([nH]c(C(=O)OC(C)C)c3C)C2)c1` (stereo unspecified): the IC50 (commonly the midpoint of a concentration-inhibition curve) in assay [1] is “inactive”. Also, the IC50 in assay [2] was > 79 µM (inactive).
Consider `Cc1nn(-c2ccccn2)c2c1-c1nc(N)ncc1CC2`, for which the pIC50 in assay [1] is 5.17. In addition, the IC50 in assay [2] is 65.3 µM (inactive).
Turning to `C=CC[C@@H](CC(=O)N[C@H](CO)Cc1ccccc1)C(=O)NC[C@H](OC(=O)[C@@H](CC=C)Cc1ccc(F)cc1)c1ccccc1`, the negative logarithm of the IC50 (pIC50) in assay [1] was 5.25; in assay [2], 5.05.
For `C=C1C(=O)[C@]23C[C@H]1CCC2[C@@]1(C)C(C[C@@H]3O)[C@](C)(C(=O)O)CC[C@@H]1O` (stereo partly specified), in that order: 5.70 and 4.88.
Turning to `C=CCn1c(Oc2ccccc2F)nc2c1c(=O)n(C)c(=O)n2C`, the negative logarithm of the IC50 (pIC50) in assay [1] is 5.24. Moreover, the IC50 in assay [2] is > 79 µM (inactive).
For `Cc1ccc(S(=O)(=O)Nc2cccc3cccnc23)c([N+](=O)[O-])c1`, the pIC50 in assay [1] is 5.55. The IC50 in assay [2] is > 79 µM (inactive).
On to `COc1cccc(OC)c1C(=O)Nc1cc(C)nn1-c1nc2ccccc2[nH]1`, for which the pIC50 was 5.42 in assay [1] and 5.00 in assay [2].
On to `O=C(NCCc1ccccc1)c1coc(=O)c(Br)c1`, for which the pIC50 was 5.31 in assay [1] and 4.94 in assay [2].
In the same order, the values of `CC(=O)c1ccc(NC(=O)Nc2ccc3c(c2)N(C)C(=O)CS3)cc1` are 5.29 and 4.53.
With `COc1ccc(-n2nc(C(=O)NCC(=O)Nc3cc(OC)c(OC)c(OC)c3)c3ccccc3c2=O)cc1OC`, the pIC50 in assay [1] is 5.65; in assay [2], 4.84.
As for `COc1ccc(C2=Nn3c(nnc3-c3ccccc3OC)SC2)cc1OC1CCOC1` (stereo unspecified), the negative-log IC50 (pIC50) in assay [1] was 5.31. Moreover, in assay [2], the IC50 was > 79 µM (inactive).
With `O=C(c1cc([N+](=O)[O-])ccc1N1CCOCC1)N1CCN(c2ccccc2)CC1`, in assay [1], the IC50 result was “inactive”. Besides, the IC50 in assay [2] was > 79 µM (inactive).
In the case of `Cc1ccc(NC(=O)c2ccccc2NS(=O)(=O)c2ccc(Cl)s2)cc1S(=O)(=O)N1CCOCC1`, the pIC50 is 5.47 in assay [1] and 5.08 in assay [2].
`COc1ccc(COC(=O)C2=C(C)NC(=O)NC2c2ccc(OC)cc2)cc1` (stereo unspecified): the negative-log IC50 (pIC50) in assay [1] is 5.18; in assay [2], 4.35.
In the same order, the values of `COc1ccc2[nH]cc(C(=O)CCl)c2c1` are 5.92 and 5.71.
In the same order, the values of `COc1ccccc1NC(=O)c1cc2c(CO)cnc(C)c2oc1=Nc1ccc(OC)c(OC)c1` are 5.02 and 4.91.
For `O=C(NCCc1ccc(F)cc1)c1coc(=O)c(Br)c1`, in that order: 5.36 and 4.67.
As for `Cc1cccc(NC(=O)c2nc[nH]c2C(=O)NCCCNC(=O)c2[nH]cnc2C(=O)Nc2cccc(C)c2)c1`, the pIC50 is 5.39 in assay [1] and 4.94 in assay [2].
Turning to `COc1cccc(-c2ccc3ncnc(NCc4cccnc4)c3c2)c1`, the negative logarithm of the IC50 (pIC50) was 5.91 in assay [1] and 4.95 in assay [2].
As to `Cc1cc(C)cc(NS(=O)(=O)c2ccc(-c3cnc(C4CC4)o3)cc2)c1`, the pIC50 was 4.92 in assay [1] and 4.39 in assay [2].
Regarding `CCOc1ccc(-n2c(C)c(C(C)=O)c3cc(OC(C)=O)ccc32)cc1`, the results for the pIC50 in assay [1] and in assay [2] were 6.03 and 4.35, respectively.
For `COc1ccccc1NS(=O)(=O)c1cccc(-n2c(O)c(C=Nc3ccccc3C(=O)O)c3ccccc3c2=O)c1`, in that order: 5.26 and 4.43.
For `Cc1cccc(N=c2oc3cc(O)ccc3cc2C(N)=O)c1`, in that order: 5.56 and 4.34.
